Like-named read-outs stand apart in the source and are kept apart here.
Legend:
[1] = molecular target: B. taurus (heart) complex I (Bos taurus, UniProt P03887+P17694+P42026); test: biochemical; format: biochemical
Outline: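 Complex I activity followed as DCIP reduction (600 nm, 30 s reads, 15 min) with 80 μM NADH and 60 μM decylubiquinone in 25 mM KPi pH 7.5 containing 2 μM antimycin A and 2 mM KCN. Freeze-thawed mouse or bovine heart mitochondria at 0.2 mg/mL; initial-rate percent of solvent control, single-point 100 μM or dose-response.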

[2] = molecular target: C. elegans (N2) complex I (NADH:ubiquinone oxidoreductase) (Caenorhabditis elegans, UniProt P24887+Q93873+Q94360); test: biochemical; format: biochemical
Outline: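 Compounds were tested against freeze-thawed isolated mitochondria (0.2 mg/mL protein). NADH:decylubiquinone activity was monitored via DCIP absorbance at 600 nm, and the initial linear slope was normalised to solvent controls.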

Sequence of B. taurus (heart) complex I (P03887 whole entry): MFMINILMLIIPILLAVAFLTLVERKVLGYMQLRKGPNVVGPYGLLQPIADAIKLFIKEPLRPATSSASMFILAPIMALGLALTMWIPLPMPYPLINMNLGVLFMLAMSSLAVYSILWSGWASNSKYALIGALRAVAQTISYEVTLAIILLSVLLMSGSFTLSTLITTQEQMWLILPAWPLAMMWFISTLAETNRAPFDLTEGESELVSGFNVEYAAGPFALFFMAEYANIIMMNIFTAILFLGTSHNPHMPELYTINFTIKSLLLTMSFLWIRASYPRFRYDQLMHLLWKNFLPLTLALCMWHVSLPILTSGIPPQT
Sequence of B. taurus (heart) complex I (P17694 34-463): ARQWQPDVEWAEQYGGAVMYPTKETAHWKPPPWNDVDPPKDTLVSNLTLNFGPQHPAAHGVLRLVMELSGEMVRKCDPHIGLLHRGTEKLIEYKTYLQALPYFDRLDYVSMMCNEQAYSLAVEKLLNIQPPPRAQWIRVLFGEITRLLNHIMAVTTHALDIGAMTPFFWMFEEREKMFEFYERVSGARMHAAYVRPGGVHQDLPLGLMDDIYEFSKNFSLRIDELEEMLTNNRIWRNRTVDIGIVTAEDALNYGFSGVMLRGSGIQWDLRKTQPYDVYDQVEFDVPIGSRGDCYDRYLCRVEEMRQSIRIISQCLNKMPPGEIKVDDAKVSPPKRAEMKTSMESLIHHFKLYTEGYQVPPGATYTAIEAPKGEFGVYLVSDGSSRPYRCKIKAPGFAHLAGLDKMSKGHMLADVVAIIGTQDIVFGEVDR
Sequence of B. taurus (heart) complex I (P42026 38-216): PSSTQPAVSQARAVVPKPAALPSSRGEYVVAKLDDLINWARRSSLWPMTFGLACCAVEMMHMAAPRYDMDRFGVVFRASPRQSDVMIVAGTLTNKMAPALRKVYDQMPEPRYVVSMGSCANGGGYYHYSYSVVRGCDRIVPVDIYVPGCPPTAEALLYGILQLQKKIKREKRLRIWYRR
Sequence of C. elegans (N2) complex I (NADH:ubiquinone oxidoreductase) (Q94360 17-199): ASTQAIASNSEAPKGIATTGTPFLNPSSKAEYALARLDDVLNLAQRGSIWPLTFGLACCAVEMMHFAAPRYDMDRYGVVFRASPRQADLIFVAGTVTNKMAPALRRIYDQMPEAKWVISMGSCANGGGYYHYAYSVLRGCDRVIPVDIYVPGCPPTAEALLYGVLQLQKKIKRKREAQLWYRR
Sequence of C. elegans (N2) complex I (NADH:ubiquinone oxidoreductase) (P24887 whole entry): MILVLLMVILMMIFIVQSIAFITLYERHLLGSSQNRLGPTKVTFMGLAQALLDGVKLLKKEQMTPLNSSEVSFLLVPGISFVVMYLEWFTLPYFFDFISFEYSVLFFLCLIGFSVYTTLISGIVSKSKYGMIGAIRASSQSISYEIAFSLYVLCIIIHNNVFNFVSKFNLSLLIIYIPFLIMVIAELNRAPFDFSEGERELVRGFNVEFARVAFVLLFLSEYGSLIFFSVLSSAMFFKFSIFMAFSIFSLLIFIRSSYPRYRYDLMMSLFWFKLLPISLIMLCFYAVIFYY
Sequence of C. elegans (N2) complex I (NADH:ubiquinone oxidoreductase) (Q93873 31-482): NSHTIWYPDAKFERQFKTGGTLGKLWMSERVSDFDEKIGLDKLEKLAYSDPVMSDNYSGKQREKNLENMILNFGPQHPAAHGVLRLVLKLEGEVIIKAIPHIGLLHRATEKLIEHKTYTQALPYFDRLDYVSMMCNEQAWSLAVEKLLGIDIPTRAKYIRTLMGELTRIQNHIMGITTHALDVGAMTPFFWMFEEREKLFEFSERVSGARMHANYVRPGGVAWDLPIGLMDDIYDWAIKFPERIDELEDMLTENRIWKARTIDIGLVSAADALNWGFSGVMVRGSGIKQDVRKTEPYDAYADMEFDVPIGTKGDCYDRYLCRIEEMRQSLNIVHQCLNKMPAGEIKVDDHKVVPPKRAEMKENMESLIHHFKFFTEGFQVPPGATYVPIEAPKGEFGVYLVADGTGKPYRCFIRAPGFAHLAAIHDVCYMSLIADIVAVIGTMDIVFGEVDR

Question: For CCc1cc(OCCn2cnc3ccccc32)ccc1Cl [Compound 7925288], which IC50 ([1]; B. taurus heart mitochondria, read-out: B. taurus Complex I IC50) is on record?
Answer: The IC50 was 5.7 µM.

Question: And the activity at 0.0001 µM ([1]; Dose 0.0001 µM, read-out: B. taurus mitochondrial complex I activity)?
Answer: Its activity at 0.0001 µM is 89.8%.

Question: And the activity at 0.0005 µM ([1]; Dose 0.0005 µM, read-out: B. taurus mitochondrial complex I activity)?
Answer: Its activity at 0.0005 µM is 91.3%.

Question: And the activity at 0.001 µM ([1]; Dose 0.001 µM, read-out: B. taurus mitochondrial complex I activity)?
Answer: Its activity at 0.001 µM is 88.8%.

Question: What about the activity at 0.0025 µM ([1]; Dose 0.0025 µM, read-out: B. taurus mitochondrial complex I activity) of the same molecule?
Answer: Its activity at 0.0025 µM is 86.3%.

Question: What about the activity at 0.005 µM ([1]; Dose 0.005 µM, read-out: B. taurus mitochondrial complex I activity) of the same molecule?
Answer: The activity at 0.005 µM was 84.5%.

Question: What about the activity at 0.013 µM ([1]; Dose 0.013 µM, read-out: B. taurus mitochondrial complex I activity) of the same molecule?
Answer: Its activity at 0.013 µM is 89.2%.

Question: And the activity at 0.025 µM ([1]; Dose 0.025 µM, read-out: B. taurus mitochondrial complex I activity)?
Answer: The activity at 0.025 µM was 82.7%.

Question: And the activity at 0.063 µM ([1]; Dose 0.063 µM, read-out: B. taurus mitochondrial complex I activity)?
Answer: The activity at 0.063 µM was 84.2%.

Question: What about the activity at 0.125 µM ([1]; Dose 0.125 µM, read-out: B. taurus mitochondrial complex I activity) of the same molecule?
Answer: Its activity at 0.125 µM is 82.8%.

Question: What about the activity at 0.313 µM ([1]; Dose 0.313 µM, read-out: B. taurus mitochondrial complex I activity) of the same molecule?
Answer: The activity at 0.313 µM was 79.8%.

Question: What about the activity at 0.625 µM ([1]; Dose 0.625 µM, read-out: B. taurus mitochondrial complex I activity) of the same molecule?
Answer: The activity at 0.625 µM was 84.6%.

Question: What about the activity at 1.5 µM ([1]; Dose 1.5 µM, read-out: B. taurus mitochondrial complex I activity) of the same molecule?
Answer: Its activity at 1.5 µM is 75.4%.

Question: What about the activity at 3 µM ([1]; Dose 3 µM, read-out: B. taurus mitochondrial complex I activity) of the same molecule?
Answer: Its activity at 3 µM is 61.1%.

Question: And the activity at 15 µM ([1]; Dose 15 µM, read-out: B. taurus mitochondrial complex I activity)?
Answer: The activity at 15 µM was 17.7%.

Question: And the activity at 37.5 µM ([1]; Dose 37.5 µM, read-out: B. taurus mitochondrial complex I activity)?
Answer: Its activity at 37.5 µM is 2.74%.

Question: And the activity at 75 µM ([1]; Dose 75 µM, read-out: B. taurus mitochondrial complex I activity)?
Answer: Its activity at 75 µM is 1.27%.

Question: What about the “Log IC50 B. taurus complex I” value ([1]; log10 of IC50 in µM, B. taurus mitochondria) of the same molecule?
Answer: Its value is 0.76 µM.

Question: And the activity at 0.0001 µM ([2]; Dose 0.0001 µM, read-out: C. elegans mitochondrial complex I activity)?
Answer: Its activity at 0.0001 µM is 89.3%.

Question: And the activity at 0.0005 µM ([2]; Dose 0.0005 µM, read-out: C. elegans mitochondrial complex I activity)?
Answer: The activity at 0.0005 µM was 90.8%.

Question: And the activity at 0.001 µM ([2]; Dose 0.001 µM, read-out: C. elegans mitochondrial complex I activity)?
Answer: The activity at 0.001 µM was 94%.

Question: What about the activity at 0.0025 µM ([2]; Dose 0.0025 µM, read-out: C. elegans mitochondrial complex I activity) of the same molecule?
Answer: Its activity at 0.0025 µM is 90.8%.

Question: And the activity at 0.005 µM ([2]; Dose 0.005 µM, read-out: C. elegans mitochondrial complex I activity)?
Answer: Its activity at 0.005 µM is 98.8%.

Question: What about the activity at 0.013 µM ([2]; Dose 0.013 µM, read-out: C. elegans mitochondrial complex I activity) of the same molecule?
Answer: Its activity at 0.013 µM is 96.9%.

Question: And the activity at 0.025 µM ([2]; Dose 0.025 µM, read-out: C. elegans mitochondrial complex I activity)?
Answer: Its activity at 0.025 µM is 96.9%.

Question: And the activity at 0.063 µM ([2]; Dose 0.063 µM, read-out: C. elegans mitochondrial complex I activity)?
Answer: Its activity at 0.063 µM is 63.2%.

Question: And the activity at 0.125 µM ([2]; Dose 0.125 µM, read-out: C. elegans mitochondrial complex I activity)?
Answer: Its activity at 0.125 µM is 63.3%.

Question: What about the activity at 0.313 µM ([2]; Dose 0.313 µM, read-out: C. elegans mitochondrial complex I activity) of the same molecule?
Answer: Its activity at 0.313 µM is 77.6%.

Question: And the activity at 0.625 µM ([2]; Dose 0.625 µM, read-out: C. elegans mitochondrial complex I activity)?
Answer: Its activity at 0.625 µM is 77.6%.

Question: And the activity at 1.5 µM ([2]; Dose 1.5 µM, read-out: C. elegans mitochondrial complex I activity)?
Answer: Its activity at 1.5 µM is 60.7%.

Question: What about the activity at 3 µM ([2]; Dose 3 µM, read-out: C. elegans mitochondrial complex I activity) of the same molecule?
Answer: Its activity at 3 µM is 46.8%.

Question: What about the activity at 15 µM ([2]; Dose 15 µM, read-out: C. elegans mitochondrial complex I activity) of the same molecule?
Answer: The activity at 15 µM was 16.1%.

Question: And the activity at 37.5 µM ([2]; Dose 37.5 µM, read-out: C. elegans mitochondrial complex I activity)?
Answer: The activity at 37.5 µM was 4.53%.

Question: What about the activity at 75 µM ([2]; Dose 75 µM, read-out: C. elegans mitochondrial complex I activity) of the same molecule?
Answer: Its activity at 75 µM is 2.28%.

Question: What about the IC50 ([2]; in vitro complex I dose response on C. elegans mitochondria, average of at least two biological replicates, fit in R (DRC), read-out: IC50 C. elegans complex I) of the same molecule?
Answer: Its IC50 is 8.09 µM.

Question: And the “Log IC50 C. elegans complex I” value ([2]; log10 of IC50 in µM, C. elegans mitochondria)?
Answer: The value was 0.91 µM.

Question: And the IC50 ([2]; wild-type C. elegans mitochondria, read-out: C. elegans Complex I IC50)?
Answer: Its IC50 is 8.09 µM.
